Measurements: patent publication US9125828B2, “MOC compositions” (Givaudan SA, priority 2010, dated 2015)

Tested on: axillary malodour
Experiment: Deodorancy of pro-perfumes compared with their breakdown products
Assay type: in vivo
Details: pro perfumes that undergo scission when exposed to UV light; no data given
Excerpt: The effectiveness of compositions of the present invention comprising 2-Ethoxy-4-formylphenyl (E)-3-(2-hydroxyphenyl) acrylate and/or (E)-Dec-9-enyl 3-(2-hydroxyphenyl) acrylate, two group A materials, in axillary malodour counteracting deodorant is particularly surprising. These materials are pro perfumes that undergo scission into other compounds when exposed to UV light, this is disclosed in EP 936211. The use of materials that require light activation is counter-intuitive for application in underarm products such as deodorants and antiperspirants.

SMILES | deodorancy relative to breakdown products
C=CCCCCCCCCOC(=O)/C=C/c1ccccc1O [(E)-Dec-9-enyl 3-(2-hydroxyphenyl)acrylate] | better deodorancy than their breakdown products
CCOc1cc(C=O)ccc1OC(=O)/C=C/c1ccccc1O [2-Ethoxy-4-formylphenyl (E)-3-(2-hydroxyphenyl)acrylate] | better deodorancy than their breakdown products
